What all share (assay): Radiolabeled ATP kinase assay, panel of 371 kinases (Table S6)
What all share (type): biochemical

Assay [1] concerns the target T1, panel of 371 human kinases (Homo sapiens, UniProt O94921).
T1 construct: purchased Reaction Biology Corp
The following applies: CDK14/cyclin Y (PFTK1); 0.1 μM; 10 μM ATP; read-out: % Enzyme Activity (relative to DMSO controls). An excerpt:
(§1) ; FIG. 38C). […]. Further targeted analyses, such as genetic knock-down or knock-out, may be warranted to parse the role of these additional kinases in our model of neurodegeneration.

Assay [2] addresses T2, panel of 371 human kinases (Homo sapiens, UniProt Q16620).
T2 construct: purchased Reaction Biology Corp
The following applies: TRKB; 0.1 μM; 10 μM ATP; read-out: % Enzyme Activity (relative to DMSO controls).
Source text: as §1

Assay [3] deals with T3, panel of 371 human kinases (Homo sapiens, UniProt Q9BXA6).
T3 construct: purchased Reaction Biology Corp
To be noted: SSTK/TSSK6; 0.1 μM; 10 μM ATP; read-out: % Enzyme Activity (relative to DMSO controls).
Source text: as §1

Assay [4] addresses T4, panel of 371 human kinases (Homo sapiens, UniProt P51957).
T4 construct: purchased Reaction Biology Corp
The following applies: NEK4; 0.1 μM; 10 μM ATP; read-out: % Enzyme Activity (relative to DMSO controls).
Source text: as §1

Assay [5] has as its target T5, panel of 371 human kinases (Homo sapiens, UniProt P25098).
T5 construct: purchased Reaction Biology Corp
The following applies: GRK2; 0.1 μM; 10 μM ATP; read-out: % Enzyme Activity (relative to DMSO controls).
Source text: as §1

The target of assay [6] is T6, panel of 371 human kinases (Homo sapiens, UniProt P42679).
T6 construct: purchased Reaction Biology Corp
To be noted: CTK/MATK; 0.1 μM; 10 μM ATP; read-out: % Enzyme Activity (relative to DMSO controls).
Source text: as §1

Assay [7] has as its target T7, panel of 371 human kinases (Homo sapiens, UniProt Q13163).
T7 construct: purchased Reaction Biology Corp
To be noted: MEK5; 0.1 μM; 10 μM ATP; read-out: % Enzyme Activity (relative to DMSO controls).
Source text: as §1

Assay [8] concerns the target T8, panel of 371 human kinases (Homo sapiens, UniProt P49840).
T8 construct: purchased Reaction Biology Corp
To be noted: GSK3a; 0.1 μM; 10 μM ATP; read-out: % Enzyme Activity (relative to DMSO controls).
Source text: as §1

In assay [9] the target is T9, panel of 371 human kinases (Homo sapiens, UniProt O96013).
T9 construct: purchased Reaction Biology Corp
To be noted: PAK4; 0.1 μM; 10 μM ATP; read-out: % Enzyme Activity (relative to DMSO controls).
Source text: as §1

Assay [10] addresses T10, panel of 371 human kinases (Homo sapiens, UniProt Q8IU85).
T10 construct: purchased Reaction Biology Corp
The following applies: CAMK1d; 0.1 μM; 10 μM ATP; read-out: % Enzyme Activity (relative to DMSO controls).
Source text: as §1

Assay [11] has as its target T11, panel of 371 human kinases (Homo sapiens, UniProt Q15139).
T11 construct: purchased Reaction Biology Corp
To be noted: PKCmu/PRKD1; 0.1 μM; 10 μM ATP; read-out: % Enzyme Activity (relative to DMSO controls).
Source text: as §1

Assay [12] deals with T12, panel of 371 human kinases (Homo sapiens, UniProt Q9NRH2).
T12 construct: purchased Reaction Biology Corp
The following applies: SNRK; 0.1 μM; 10 μM ATP; read-out: % Enzyme Activity (relative to DMSO controls).
Source text: as §1

The target of assay [13] is T13, panel of 371 human kinases (Homo sapiens, UniProt Q9Y2U5).
T13 construct: purchased Reaction Biology Corp
The following applies: MEKK2; 0.1 μM; 10 μM ATP; read-out: % Enzyme Activity (relative to DMSO controls).
Source text: as §1

Assay [14] has as its target T14, panel of 371 human kinases (Homo sapiens, UniProt P15056).
T14 construct: purchased Reaction Biology Corp
To be noted: BRAF; 0.1 μM; 10 μM ATP; read-out: % Enzyme Activity (relative to DMSO controls).
Source text: as §1

The target in assay [15] is T15, panel of 371 human kinases (Homo sapiens, UniProt Q15349).
T15 construct: purchased Reaction Biology Corp
The following applies: RSK3; 0.1 μM; 10 μM ATP; read-out: % Enzyme Activity (relative to DMSO controls).
Source text: as §1

The target in assay [16] is T16, panel of 371 human kinases (Homo sapiens, UniProt P53671).
T16 construct: purchased Reaction Biology Corp
To be noted: LIMK2; 0.1 μM; 10 μM ATP; read-out: % Enzyme Activity (relative to DMSO controls).
Source text: as §1

In assay [17] the target is T17, panel of 371 human kinases (Homo sapiens, UniProt P46734).
T17 construct: purchased Reaction Biology Corp
To be noted: MEK3; 0.1 μM; 10 μM ATP; read-out: % Enzyme Activity (relative to DMSO controls).
Source text: as §1

The target in assay [18] is T18, panel of 371 human kinases (Homo sapiens, UniProt P07332).
T18 construct: purchased Reaction Biology Corp
To be noted: FES/FPS; 0.1 μM; 10 μM ATP; read-out: % Enzyme Activity (relative to DMSO controls).
Source text: as §1

The target in assay [19] is T19, panel of 371 human kinases (Homo sapiens, UniProt P52333).
T19 construct: purchased Reaction Biology Corp
The following applies: JAK3; 0.1 μM; 10 μM ATP; read-out: % Enzyme Activity (relative to DMSO controls).
Source text: as §1

Assay [20] deals with T20, panel of 371 human kinases (Homo sapiens, UniProt P10721).
T20 construct: purchased Reaction Biology Corp
The following applies: c-Kit; 0.1 μM; 10 μM ATP; read-out: % Enzyme Activity (relative to DMSO controls).
Source text: as §1

For assay [21], the target named is T21, panel of 371 human kinases (Homo sapiens, UniProt O43318).
T21 construct: purchased Reaction Biology Corp
The following applies: TAK1; 0.1 μM; 10 μM ATP; read-out: % Enzyme Activity (relative to DMSO controls).
Source text: as §1

Assay [22] deals with T22, panel of 371 human kinases (Homo sapiens, UniProt O14757).
T22 construct: purchased Reaction Biology Corp
The following applies: CHK1; 0.1 μM; 10 μM ATP; read-out: % Enzyme Activity (relative to DMSO controls).
Source text: as §1

For assay [23], the target named is T23, panel of 371 human kinases (Homo sapiens, UniProt Q16512).
T23 construct: purchased Reaction Biology Corp
The following applies: PKN1/PRK1; 0.1 μM; 10 μM ATP; read-out: % Enzyme Activity (relative to DMSO controls).
Source text: as §1

For assay [24], the target named is T24, panel of 371 human kinases (Homo sapiens, UniProt Q9HBY8).
T24 construct: purchased Reaction Biology Corp
To be noted: SGK2; 0.1 μM; 10 μM ATP; read-out: % Enzyme Activity (relative to DMSO controls).
Source text: as §1

T3 sequence (Q9BXA6 whole entry): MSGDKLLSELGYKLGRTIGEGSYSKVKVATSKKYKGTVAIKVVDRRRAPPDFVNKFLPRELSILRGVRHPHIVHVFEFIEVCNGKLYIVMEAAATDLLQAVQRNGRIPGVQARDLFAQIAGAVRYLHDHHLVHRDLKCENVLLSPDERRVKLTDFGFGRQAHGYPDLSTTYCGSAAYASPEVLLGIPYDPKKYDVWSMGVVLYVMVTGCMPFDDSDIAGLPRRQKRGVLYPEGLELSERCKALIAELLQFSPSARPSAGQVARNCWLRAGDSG
T14 sequence (P15056 whole entry): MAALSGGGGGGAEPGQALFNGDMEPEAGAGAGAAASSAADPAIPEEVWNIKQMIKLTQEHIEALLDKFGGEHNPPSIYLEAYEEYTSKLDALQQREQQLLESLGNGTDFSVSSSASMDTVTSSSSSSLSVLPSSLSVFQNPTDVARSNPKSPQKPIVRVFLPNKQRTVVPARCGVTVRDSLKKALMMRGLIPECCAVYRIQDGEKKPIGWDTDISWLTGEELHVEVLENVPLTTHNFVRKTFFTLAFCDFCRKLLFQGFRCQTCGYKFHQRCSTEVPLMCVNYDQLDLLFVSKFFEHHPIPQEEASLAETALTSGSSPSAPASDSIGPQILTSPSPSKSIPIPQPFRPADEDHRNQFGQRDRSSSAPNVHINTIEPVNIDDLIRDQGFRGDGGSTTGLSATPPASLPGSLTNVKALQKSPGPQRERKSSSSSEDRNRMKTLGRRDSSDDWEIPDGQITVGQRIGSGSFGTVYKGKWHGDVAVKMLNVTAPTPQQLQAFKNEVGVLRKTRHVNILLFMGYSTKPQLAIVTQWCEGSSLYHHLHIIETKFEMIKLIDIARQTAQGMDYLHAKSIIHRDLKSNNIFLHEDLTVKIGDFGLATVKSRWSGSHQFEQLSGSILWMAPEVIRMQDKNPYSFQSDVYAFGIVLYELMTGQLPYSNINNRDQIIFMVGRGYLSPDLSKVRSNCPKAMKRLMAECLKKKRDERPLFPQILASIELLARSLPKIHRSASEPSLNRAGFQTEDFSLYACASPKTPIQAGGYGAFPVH
T21 sequence (O43318 whole entry): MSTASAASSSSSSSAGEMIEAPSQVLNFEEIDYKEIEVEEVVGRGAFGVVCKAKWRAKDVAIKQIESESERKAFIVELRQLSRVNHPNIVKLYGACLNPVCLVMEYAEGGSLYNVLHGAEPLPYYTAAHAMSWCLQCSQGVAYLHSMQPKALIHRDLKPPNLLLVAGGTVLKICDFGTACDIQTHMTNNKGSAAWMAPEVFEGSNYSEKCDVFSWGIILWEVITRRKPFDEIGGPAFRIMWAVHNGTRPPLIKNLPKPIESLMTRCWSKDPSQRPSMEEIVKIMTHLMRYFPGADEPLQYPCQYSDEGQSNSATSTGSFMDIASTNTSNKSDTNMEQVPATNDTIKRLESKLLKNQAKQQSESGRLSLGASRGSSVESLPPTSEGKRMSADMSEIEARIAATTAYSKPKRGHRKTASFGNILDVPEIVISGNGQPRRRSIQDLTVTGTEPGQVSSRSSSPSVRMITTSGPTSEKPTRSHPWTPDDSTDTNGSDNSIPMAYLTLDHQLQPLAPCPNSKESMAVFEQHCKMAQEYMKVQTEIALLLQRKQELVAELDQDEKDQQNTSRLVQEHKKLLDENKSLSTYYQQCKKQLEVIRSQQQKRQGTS
T6 sequence (P42679 whole entry): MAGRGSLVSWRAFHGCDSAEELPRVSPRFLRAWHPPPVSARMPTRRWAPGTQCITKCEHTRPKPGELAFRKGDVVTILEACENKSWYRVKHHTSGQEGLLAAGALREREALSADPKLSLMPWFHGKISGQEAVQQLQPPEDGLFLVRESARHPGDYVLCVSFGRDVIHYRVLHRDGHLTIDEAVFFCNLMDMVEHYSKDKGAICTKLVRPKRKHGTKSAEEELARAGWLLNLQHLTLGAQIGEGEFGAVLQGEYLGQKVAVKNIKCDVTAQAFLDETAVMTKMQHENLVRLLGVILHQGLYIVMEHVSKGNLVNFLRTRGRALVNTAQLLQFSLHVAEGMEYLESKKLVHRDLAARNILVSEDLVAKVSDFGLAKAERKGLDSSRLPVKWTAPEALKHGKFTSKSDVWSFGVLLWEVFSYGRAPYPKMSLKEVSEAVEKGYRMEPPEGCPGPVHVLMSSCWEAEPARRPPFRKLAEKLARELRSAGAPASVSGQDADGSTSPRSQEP
T23 sequence (Q16512 whole entry): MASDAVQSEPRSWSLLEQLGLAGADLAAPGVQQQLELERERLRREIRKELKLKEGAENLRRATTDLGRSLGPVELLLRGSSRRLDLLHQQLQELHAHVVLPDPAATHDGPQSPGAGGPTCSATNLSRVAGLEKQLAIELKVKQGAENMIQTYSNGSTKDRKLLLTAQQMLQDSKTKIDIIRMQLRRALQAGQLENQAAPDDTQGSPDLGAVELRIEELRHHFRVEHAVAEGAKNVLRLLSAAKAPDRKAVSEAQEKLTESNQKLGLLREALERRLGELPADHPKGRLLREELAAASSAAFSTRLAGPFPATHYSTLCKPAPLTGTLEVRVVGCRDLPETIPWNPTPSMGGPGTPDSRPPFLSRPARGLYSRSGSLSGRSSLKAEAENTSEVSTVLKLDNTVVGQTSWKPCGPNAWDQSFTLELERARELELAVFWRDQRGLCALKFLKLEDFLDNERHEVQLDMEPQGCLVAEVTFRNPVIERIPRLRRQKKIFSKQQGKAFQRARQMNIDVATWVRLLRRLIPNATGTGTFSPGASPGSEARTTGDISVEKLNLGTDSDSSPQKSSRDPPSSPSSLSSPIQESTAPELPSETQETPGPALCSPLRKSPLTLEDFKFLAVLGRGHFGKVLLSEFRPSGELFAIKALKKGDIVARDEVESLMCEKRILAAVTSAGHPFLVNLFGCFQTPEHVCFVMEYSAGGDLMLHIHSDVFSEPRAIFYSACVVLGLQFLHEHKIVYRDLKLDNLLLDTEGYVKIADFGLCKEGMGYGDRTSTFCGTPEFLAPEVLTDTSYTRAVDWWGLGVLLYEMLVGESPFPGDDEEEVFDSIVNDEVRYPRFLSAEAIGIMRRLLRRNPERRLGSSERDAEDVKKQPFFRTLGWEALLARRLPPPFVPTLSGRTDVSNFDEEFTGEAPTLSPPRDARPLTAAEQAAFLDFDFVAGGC
T11 sequence (Q15139 whole entry): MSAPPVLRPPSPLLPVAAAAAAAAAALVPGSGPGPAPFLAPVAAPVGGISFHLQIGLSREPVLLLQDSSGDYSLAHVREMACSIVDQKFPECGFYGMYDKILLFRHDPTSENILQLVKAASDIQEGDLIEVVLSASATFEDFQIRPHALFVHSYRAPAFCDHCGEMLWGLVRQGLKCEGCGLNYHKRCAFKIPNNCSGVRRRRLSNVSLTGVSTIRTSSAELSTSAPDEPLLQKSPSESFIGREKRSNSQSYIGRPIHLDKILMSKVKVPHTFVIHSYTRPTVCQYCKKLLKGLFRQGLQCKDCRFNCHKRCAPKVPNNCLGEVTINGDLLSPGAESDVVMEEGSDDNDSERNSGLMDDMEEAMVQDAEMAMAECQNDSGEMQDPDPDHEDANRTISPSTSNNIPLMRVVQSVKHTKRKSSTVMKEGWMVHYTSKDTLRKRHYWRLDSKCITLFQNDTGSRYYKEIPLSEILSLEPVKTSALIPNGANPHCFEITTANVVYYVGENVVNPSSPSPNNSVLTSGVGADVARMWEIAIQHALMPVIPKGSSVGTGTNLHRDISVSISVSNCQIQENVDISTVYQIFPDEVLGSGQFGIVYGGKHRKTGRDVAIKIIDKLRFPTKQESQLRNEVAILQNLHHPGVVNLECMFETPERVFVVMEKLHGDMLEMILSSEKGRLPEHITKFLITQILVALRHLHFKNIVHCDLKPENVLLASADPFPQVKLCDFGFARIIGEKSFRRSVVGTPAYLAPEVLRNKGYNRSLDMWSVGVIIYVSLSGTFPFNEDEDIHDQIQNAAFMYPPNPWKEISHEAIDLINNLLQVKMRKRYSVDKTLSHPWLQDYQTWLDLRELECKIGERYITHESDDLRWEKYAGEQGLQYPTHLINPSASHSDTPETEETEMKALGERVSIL
T4 sequence (P51957 whole entry): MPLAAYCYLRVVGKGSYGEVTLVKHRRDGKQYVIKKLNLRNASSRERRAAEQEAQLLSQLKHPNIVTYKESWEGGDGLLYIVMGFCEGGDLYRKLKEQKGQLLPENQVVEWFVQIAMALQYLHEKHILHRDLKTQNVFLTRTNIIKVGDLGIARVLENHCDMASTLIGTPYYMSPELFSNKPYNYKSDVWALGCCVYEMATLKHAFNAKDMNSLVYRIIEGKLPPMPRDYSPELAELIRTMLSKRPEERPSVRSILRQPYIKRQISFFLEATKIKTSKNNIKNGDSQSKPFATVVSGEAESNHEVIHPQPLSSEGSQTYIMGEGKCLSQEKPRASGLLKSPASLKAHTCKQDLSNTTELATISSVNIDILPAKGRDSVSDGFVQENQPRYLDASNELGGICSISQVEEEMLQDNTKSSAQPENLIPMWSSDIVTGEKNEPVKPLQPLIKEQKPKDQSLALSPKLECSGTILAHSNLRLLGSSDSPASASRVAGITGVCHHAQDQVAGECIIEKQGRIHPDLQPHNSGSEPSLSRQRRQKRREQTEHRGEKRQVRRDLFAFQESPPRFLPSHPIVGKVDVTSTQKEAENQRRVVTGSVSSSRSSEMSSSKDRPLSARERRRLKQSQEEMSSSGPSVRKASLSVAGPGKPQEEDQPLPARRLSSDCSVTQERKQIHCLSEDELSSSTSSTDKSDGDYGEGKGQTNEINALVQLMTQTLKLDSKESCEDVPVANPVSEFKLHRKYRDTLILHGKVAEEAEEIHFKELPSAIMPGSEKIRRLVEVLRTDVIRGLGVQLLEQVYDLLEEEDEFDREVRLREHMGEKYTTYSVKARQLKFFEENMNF

As for `OCCN1CCN(Cc2ccc(-c3cnc4[nH]cc(-c5cccc(Cl)c5)c4c3)cc2)CC1` [Compound 12k, 2-(4-(4-(3-(3-Chlorophenyl)-1H-pyrrolo[2,3-b]pyridin-5-yl)benzyl)piperazin-1-yl)ethan-1-ol], the remaining activity at 0.1 µM worked out at 94.9% in [1]; 77.4% in assay [2]; 102% in assay [3]; 87.4% in assay [4]; 96.3% in assay [5]; 96.5% in assay [6]. For the same compound, the remaining activity at 0.1 µM in assay [7] was found to be 85.6%; in assay [8], 91.6%; in assay [9], 93.8%; in [10] it was 96.8%; in assay [11] it was 3.95%; in assay [12] it was 43.1%. Also, the remaining activity at 0.1 µM in assay [13] worked out at 93.3%; in assay [14], 98%; in [15] it was 45.3%; in assay [16] it was 101%; in assay [17], 99.7%; in assay [18], 77.9%. Besides, the remaining activity at 0.1 µM in assay [19] came out at 76.2%; in assay [20] it was 89.8%; in [21], 77.4%; in [22] it was 75%; in assay [23], 95%; in [24], 96.7%.

With `CN1CCN(Cc2ccc(-c3cnc4[nH]cc(-c5ccc6[nH]ccc6c5)c4c3)cc2)CC1` [Compound 1, 3-(1H-Indol-5-yl)-5-(4-((4-methylpiperazin-1-yl)methyl)phenyl)-1H-pyrrolo[2,3-b]pyridine, reference compound], the remaining activity at 0.1 µM worked out at 110% in assay [1]; 59.3% in assay [2]; 121% in assay [3]; 89.8% in [4]; 94% in assay [5]; 102% in assay [6]. For the same compound, the remaining activity at 0.1 µM stood at 97.6% in assay [7]; 84.8% in [8]; 88% in assay [9]; 101% in assay [10]; 24.4% in [11]; 102% in assay [12]. Further, the remaining activity at 0.1 µM in [13] stood at 102%; in [14], 105%; in assay [15], 61.7%; in assay [16], 103%; in assay [17], 101%; in assay [18], 68.2%. Further, the remaining activity at 0.1 µM amounted to 90.9% in assay [19]; 100% in assay [20]; 84.6% in [21]; 90% in assay [22]; 94% in assay [23]; 92.8% in assay [24].

(Values after US12227500B2, “Substituted pyrrolo[2,3-b]pyridines for suppressing toxic endoplasmic reticulum stress” (THE TRUSTEES OF COLUMBIA UNIVERSITY IN THE CITY OF NEW YORK, priority 2018, dated 2025).)
